From ChEMBL document CHEMBL1201862, “PubChem BioAssay data set” (2004)
Activity calls are given as the source filed them.

What was measured:
[1] = tested on: Jurkat; assay: antigen receptor-induced NF-kB inhibitors, dose response, Jurkat, luciferase reporter, luminescence, B- and T-cell (AID 489004); assay type: functional, cell-based; conditions: Homo sapiens;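 note: NF-kB luciferase reporter Jurkat cells stimulated with PMA plus ionomycin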
[2] = cytotoxicity in HEK-293T NF-kB-Luc cells, dose response, cytotoxicity control for B/T-cell NF-kB inhibitor project, cell-based, uHTS hits (AID 489019); assay type: functional;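 note: IC50 reflects cytotoxicity as loss of cell viability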
[3] = inhibitors of intracellular T. cruzi replication, confirmation, NIH3T3 host cells, beta-gal luminescence (AID 2044); assay type: functional, cell-based;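 note: intracellular parasites grown in NIH/3T3 mouse fibroblasts as host cells; luminescent beta-galactosidase reporter signal from transgenic T. cruzi replicating inside host cells; inhibitors lower the luminescence signal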
[4] = biological target: T1, Polyadenylate-binding protein 1 (Homo sapiens, UniProt P11940); assay: PABP1 MLLE–PAM2 binding inhibitor potency, dose response, biochemical, fluorescence polarization, FITC-PAM2 peptide (AID 602259); assay type: functional; conditions: read-out: IC50_Mean
[5] = biological target: Cytochrome P450 3A4 (Homo sapiens, UniProt P08684);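 note: CYP3A4 tested as one member of a cytochrome P450 panel screen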
[6] = biological target: Genome polyprotein (dengue virus type 2, UniProt P29990); assay: Dengue-2 NS5 methyltransferase inhibitors, primary screen, biochemical, confirmation dose response (AID 588689); assay type: functional
[7] = biological target: Beta-galactosidase (Escherichia coli, UniProt Q8VNN2); assay: beta-galactosidase enzyme inhibitors and activators, dose response, artefact control for CCR6 antagonist project, biochemical, E. coli enzyme, set 3 (AID 504712); assay type: functional
[8] = cytotoxicity toward NIH3T3 fibroblasts, dose response, counter-screen, cell-based, ATP luminescence, mouse fibroblasts (AID 2010); assay type: functional; conditions: NIH3T3;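 note: cells exposed to compound for about 90 hours before reading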
[9] = biological target: Cytochrome P450 2D6 (Homo sapiens, UniProt P10635);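 note: CYP2D6 member of a cytochrome P450 panel assay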
[10] = biological target: T1, Polyadenylate-binding protein 1; assay: PABP1 MLLE–PAM2 interaction inhibitors, dose response, miRNA deadenylation inhibitor project, biochemical, fluorescence polarization, Cy5-PAM2 peptide, secondary (AID 602260); assay type: functional; conditions: read-out: IC50_Mean
[11] = biological target: Glucose-6-phosphate 1-dehydrogenase (Homo sapiens, UniProt P11413); assay: human G6PD enzyme inhibitors, dose response, selectivity assay for P. falciparum G6PD inhibitor project, biochemical, fluorescence (AID 504792); assay type: functional
[12] = biological target: T2, Hexokinase HKDC1 (Homo sapiens, UniProt Q2TB90); assay: HKDC1 hexokinase inhibitors, SAR follow-up, biochemical, set 2 (AID 588355); assay type: functional
T2 sequence (Q2TB90 whole entry): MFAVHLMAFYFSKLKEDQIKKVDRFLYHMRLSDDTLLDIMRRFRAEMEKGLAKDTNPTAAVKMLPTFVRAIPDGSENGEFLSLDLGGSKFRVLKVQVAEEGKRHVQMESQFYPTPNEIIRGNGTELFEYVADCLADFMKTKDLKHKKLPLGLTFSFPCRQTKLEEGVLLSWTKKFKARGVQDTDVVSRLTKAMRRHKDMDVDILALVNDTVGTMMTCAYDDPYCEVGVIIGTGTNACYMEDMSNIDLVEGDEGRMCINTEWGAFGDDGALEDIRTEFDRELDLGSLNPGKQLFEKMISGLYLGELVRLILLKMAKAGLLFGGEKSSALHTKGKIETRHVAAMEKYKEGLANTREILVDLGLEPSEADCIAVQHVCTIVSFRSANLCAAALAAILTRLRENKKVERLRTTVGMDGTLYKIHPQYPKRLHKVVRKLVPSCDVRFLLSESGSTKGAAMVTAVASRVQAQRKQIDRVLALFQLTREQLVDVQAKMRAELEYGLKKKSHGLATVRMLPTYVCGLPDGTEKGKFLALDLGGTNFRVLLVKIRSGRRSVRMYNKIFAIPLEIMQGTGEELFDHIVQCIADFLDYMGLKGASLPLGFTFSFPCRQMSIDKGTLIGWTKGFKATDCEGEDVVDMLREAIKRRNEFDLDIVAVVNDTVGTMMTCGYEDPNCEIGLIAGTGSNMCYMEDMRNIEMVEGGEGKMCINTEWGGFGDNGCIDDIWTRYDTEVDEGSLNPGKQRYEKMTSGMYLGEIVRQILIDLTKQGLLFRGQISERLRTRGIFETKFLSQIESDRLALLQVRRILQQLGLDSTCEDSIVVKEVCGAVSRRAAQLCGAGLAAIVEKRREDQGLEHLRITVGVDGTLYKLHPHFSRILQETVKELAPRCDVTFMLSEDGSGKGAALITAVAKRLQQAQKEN

[13] = biological target: T3, Hexokinase-1 (Homo sapiens, UniProt P19367); assay: HK1 enzyme inhibition by HKDC1 hits, SAR follow-up, selectivity assay for HKDC1 inhibitor project, biochemical, set 2, resazurin fluorescence coupled readout (AID 588356); assay type: functional
T3 sequence (P19367 whole entry): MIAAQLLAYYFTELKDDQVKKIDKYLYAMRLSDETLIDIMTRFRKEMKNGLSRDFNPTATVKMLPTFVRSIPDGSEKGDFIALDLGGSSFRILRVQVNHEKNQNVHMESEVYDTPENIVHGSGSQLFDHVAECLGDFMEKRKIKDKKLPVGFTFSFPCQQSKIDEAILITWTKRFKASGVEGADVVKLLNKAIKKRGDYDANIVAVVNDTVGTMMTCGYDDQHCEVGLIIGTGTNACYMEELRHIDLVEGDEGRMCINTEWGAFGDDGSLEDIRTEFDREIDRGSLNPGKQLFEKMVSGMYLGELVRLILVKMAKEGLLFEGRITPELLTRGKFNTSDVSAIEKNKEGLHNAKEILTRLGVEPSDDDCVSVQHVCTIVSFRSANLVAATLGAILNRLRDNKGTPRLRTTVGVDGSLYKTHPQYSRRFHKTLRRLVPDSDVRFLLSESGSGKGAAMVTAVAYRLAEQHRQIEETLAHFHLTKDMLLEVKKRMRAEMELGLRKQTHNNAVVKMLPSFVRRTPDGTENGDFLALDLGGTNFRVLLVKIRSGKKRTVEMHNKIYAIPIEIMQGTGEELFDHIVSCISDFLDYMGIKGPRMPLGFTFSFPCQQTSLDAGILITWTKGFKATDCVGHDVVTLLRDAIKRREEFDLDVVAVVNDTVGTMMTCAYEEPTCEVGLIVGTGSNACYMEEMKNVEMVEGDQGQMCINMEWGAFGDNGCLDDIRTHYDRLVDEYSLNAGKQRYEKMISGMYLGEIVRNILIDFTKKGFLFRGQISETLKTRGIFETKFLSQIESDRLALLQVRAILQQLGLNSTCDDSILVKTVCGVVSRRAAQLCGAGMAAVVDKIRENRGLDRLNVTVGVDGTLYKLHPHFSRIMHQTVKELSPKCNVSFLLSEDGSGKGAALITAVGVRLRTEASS

[14] = biological target: T4, Dual specificity protein phosphatase 3 (Homo sapiens, UniProt P51452); assay: SAR VHR1 absorbance Assay for In Vitro dose response studies. [Related pubchem assays (depositor defined):AID1654, AID1661, AID1878, AID1992, AID2004]
[15] = biological target: T5, Tyrosine-protein phosphatase non-receptor type 7 (Homo sapiens, UniProt P35236); assay: redox-dependent HePTP inhibition, mechanism study, biochemical, fluorescence (AID 2068); assay type: functional
T5 sequence (P35236 whole entry): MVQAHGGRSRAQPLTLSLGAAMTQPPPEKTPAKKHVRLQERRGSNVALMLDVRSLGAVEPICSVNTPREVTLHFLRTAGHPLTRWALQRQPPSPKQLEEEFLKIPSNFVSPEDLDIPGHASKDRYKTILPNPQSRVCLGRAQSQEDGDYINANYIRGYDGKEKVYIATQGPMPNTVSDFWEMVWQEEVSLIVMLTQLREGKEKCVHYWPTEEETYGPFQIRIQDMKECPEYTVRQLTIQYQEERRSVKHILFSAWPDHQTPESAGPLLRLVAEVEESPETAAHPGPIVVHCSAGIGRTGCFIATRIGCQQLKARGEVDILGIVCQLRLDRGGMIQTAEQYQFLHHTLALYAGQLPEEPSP

[16] = biological target: T4, Dual specificity protein phosphatase 3; assay: SAR VHR1 Fluorescent Assay for In Vitro dose response studies. [Related pubchem assays (depositor defined):AID1654, AID1661, AID1878, AID1992, AID2004, AID2070, AID2085]; assay type: functional
[17] = biological target: Dual specificity protein phosphatase 6 (Rattus norvegicus, UniProt Q64346); assay type: functional;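 note: confirmatory in vitro dose-response testing of MKP-3 inhibition; recombinant His-tagged MKP-3 made in E. coli BL21 with OMFP substrate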
[18] = biological target: G-protein coupled receptor 55 (Homo sapiens, UniProt Q9Y2T6); assay: GPR55 antagonists, SAR follow-up, counter-screen for GPR35 antagonist project, imaging, image-based (AID 2397); assay type: functional
Sequence of G-protein coupled receptor 55 (Q9Y2T6 whole entry): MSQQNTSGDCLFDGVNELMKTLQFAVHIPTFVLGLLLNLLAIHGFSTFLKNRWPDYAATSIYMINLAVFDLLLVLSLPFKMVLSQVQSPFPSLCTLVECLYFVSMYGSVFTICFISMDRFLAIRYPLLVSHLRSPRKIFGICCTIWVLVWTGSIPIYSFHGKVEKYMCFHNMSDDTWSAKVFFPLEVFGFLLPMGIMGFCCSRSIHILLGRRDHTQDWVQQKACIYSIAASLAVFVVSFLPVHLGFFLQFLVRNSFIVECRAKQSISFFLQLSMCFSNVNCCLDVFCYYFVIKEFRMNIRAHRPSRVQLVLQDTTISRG

T1 sequence (P11940 whole entry): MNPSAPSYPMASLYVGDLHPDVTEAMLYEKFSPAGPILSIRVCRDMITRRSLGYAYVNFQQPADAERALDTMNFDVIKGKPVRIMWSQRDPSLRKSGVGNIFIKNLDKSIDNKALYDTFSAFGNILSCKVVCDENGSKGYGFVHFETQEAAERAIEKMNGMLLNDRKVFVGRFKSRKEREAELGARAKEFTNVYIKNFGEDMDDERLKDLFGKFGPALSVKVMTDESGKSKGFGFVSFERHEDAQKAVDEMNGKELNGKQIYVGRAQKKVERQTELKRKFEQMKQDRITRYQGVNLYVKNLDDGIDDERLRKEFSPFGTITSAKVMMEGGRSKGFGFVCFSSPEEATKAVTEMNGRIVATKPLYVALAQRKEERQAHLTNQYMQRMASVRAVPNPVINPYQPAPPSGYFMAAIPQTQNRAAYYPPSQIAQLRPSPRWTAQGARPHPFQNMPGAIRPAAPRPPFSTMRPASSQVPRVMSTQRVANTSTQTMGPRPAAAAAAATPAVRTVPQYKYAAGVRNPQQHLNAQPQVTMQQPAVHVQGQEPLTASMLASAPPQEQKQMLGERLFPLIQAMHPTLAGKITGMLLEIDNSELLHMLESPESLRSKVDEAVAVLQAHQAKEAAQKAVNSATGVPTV
T4 sequence (P51452 whole entry): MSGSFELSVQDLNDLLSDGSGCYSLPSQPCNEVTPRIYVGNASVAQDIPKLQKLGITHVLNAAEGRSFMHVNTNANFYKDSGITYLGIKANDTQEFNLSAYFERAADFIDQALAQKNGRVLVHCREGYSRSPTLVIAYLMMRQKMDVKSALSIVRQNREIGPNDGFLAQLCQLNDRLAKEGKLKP
Sequence of Beta-galactosidase (Q8VNN2 whole entry): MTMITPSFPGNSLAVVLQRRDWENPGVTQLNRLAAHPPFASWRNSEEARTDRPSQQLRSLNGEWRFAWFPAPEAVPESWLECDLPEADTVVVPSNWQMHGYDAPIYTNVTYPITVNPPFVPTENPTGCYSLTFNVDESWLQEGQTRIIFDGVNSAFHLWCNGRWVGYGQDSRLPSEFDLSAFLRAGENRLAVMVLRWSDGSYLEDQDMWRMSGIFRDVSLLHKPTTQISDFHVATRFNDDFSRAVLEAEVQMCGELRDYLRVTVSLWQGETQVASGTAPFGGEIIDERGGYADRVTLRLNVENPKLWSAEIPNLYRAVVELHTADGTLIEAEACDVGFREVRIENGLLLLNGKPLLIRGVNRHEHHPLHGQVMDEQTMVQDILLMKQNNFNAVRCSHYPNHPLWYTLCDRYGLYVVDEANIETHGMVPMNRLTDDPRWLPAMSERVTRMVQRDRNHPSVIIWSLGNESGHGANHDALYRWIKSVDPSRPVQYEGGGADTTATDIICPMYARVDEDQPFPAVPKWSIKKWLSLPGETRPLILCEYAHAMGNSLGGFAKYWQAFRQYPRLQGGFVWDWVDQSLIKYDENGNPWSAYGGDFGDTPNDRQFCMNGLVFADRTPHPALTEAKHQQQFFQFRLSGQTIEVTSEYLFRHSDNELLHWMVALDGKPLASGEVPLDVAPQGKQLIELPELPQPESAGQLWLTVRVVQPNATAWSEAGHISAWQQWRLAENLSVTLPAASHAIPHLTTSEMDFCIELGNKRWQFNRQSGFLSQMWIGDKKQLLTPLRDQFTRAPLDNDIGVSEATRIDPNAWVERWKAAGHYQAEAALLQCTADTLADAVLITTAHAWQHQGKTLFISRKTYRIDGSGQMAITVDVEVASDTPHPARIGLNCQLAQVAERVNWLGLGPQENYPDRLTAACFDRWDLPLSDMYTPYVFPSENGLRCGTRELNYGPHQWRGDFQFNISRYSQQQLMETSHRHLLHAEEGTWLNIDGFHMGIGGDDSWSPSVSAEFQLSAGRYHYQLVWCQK
Sequence of Dual specificity protein phosphatase 6 (Q64346 whole entry): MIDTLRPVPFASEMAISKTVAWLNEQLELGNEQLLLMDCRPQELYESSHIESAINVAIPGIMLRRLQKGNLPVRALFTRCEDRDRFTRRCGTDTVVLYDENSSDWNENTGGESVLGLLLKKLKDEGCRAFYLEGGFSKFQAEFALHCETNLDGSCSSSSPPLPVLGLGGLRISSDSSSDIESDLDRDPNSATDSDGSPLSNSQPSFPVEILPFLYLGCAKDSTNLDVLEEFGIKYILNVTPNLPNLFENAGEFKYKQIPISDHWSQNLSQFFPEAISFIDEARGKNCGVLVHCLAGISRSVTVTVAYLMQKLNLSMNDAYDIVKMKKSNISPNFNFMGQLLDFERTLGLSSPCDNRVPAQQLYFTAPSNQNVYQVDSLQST
Sequence of Glucose-6-phosphate 1-dehydrogenase (P11413 whole entry): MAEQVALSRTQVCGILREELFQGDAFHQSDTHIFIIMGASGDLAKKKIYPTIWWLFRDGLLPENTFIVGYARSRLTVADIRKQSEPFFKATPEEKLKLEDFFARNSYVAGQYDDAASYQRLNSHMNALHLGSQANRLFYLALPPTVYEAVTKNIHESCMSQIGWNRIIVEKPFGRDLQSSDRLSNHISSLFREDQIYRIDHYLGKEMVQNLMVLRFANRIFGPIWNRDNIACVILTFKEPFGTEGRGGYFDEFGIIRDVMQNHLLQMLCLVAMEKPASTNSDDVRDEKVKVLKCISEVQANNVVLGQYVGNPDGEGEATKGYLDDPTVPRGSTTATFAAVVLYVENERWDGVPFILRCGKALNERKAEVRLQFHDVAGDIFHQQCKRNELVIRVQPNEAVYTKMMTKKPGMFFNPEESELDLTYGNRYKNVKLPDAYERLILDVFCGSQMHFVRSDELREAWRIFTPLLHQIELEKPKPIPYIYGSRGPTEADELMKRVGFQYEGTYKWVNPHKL
Sequence of Genome polyprotein (P29990 2492-3391 limits assumed): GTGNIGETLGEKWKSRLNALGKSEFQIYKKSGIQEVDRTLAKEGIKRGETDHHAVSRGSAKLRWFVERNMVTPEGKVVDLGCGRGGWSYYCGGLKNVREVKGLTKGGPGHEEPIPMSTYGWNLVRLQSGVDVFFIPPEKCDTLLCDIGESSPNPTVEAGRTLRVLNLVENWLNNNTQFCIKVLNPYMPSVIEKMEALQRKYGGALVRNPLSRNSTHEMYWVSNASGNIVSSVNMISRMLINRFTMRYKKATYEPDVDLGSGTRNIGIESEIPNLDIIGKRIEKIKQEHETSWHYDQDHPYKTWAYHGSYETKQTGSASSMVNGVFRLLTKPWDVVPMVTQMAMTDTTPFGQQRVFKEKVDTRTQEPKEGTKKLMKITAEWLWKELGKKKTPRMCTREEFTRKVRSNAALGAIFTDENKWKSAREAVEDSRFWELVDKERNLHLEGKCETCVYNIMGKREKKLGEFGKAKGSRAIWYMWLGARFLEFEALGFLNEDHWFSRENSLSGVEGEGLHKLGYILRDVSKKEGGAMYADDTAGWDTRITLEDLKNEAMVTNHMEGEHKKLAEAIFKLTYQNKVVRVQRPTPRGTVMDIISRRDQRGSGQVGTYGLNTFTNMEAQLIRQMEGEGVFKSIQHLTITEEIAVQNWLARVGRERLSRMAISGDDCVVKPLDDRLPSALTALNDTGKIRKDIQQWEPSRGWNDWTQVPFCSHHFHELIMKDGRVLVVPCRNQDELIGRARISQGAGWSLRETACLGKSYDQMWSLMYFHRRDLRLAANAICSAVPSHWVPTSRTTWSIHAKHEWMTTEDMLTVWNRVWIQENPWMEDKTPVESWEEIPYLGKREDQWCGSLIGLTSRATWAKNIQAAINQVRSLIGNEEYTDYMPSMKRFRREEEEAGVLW
Sequence of Cytochrome P450 2D6 (P10635 whole entry): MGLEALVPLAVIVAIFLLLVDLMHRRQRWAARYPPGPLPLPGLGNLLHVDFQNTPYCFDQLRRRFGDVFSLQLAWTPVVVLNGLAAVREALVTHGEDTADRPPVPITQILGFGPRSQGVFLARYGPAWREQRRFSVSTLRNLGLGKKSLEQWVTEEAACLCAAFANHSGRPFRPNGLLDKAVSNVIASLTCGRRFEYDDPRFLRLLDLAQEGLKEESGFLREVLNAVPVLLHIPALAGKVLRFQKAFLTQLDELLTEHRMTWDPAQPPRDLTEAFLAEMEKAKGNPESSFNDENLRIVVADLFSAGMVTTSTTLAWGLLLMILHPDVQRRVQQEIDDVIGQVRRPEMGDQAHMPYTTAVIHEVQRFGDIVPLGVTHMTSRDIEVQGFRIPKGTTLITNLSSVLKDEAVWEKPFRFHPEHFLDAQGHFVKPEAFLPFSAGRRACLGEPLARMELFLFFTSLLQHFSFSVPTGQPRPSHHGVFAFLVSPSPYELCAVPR
Sequence of Cytochrome P450 3A4 (P08684 whole entry): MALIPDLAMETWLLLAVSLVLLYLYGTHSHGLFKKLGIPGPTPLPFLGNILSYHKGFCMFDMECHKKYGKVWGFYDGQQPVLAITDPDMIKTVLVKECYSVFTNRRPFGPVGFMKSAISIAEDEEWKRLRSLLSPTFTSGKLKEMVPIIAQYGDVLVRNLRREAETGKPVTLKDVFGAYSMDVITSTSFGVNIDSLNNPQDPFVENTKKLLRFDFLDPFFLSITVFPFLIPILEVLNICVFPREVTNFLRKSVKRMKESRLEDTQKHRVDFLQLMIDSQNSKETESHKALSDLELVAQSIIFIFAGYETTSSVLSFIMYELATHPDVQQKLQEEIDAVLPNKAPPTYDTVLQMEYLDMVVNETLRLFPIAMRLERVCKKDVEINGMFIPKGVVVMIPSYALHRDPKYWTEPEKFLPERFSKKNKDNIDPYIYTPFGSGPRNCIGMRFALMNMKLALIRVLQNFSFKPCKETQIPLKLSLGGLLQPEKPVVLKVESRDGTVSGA

SMILES: Cc1cc(NNC(=O)Nc2cccc(Cl)c2)nc2c1c(C)nn2C
- IC50 [1]: 46.2 µM (inactive)
- IC50 [2]: > 80 µM (inactive)

SMILES: Cc1cc(O)c(-c2cc(O)c(C)cc2O)cc1O
- EC50 [3]: 2.37 µM (active)
- IC50 [4]: > 66 µM (inactive)
- AC50 [5]: 1.58 µM (inconclusive)
- IC50 [6]: 39.8 µM (active)
- IC50 [7]: > 66.6 µM (inactive)
- EC50 [8]: 4.13 µM (active)
- AC50 [9]: inconclusive
- IC50 [10]: > 66 µM (inactive)
- IC50 [11]: 11.1 µM (active)

SMILES: Cc1ccccc1N1C(=O)c2ccccc2C1Nc1ccc(Cl)cc1 (stereo not drawn)
- IC50 [12]: > 80 µM (inactive)
- IC50 [13]: > 80 µM (inactive)

SMILES: CN(C)C(=O)c1cn(CCOc2ccccc2)c2ccccc12
- IC50 [14]: > 100 µM (inactive)
- IC50 [15]: > 100 µM (inactive)
- IC50 [16]: > 100 µM (inactive)
- IC50 [17]: > 100 µM (inactive)

SMILES: COc1ccc(Cn2c(SCC(=O)Nc3ccc(C)c(C)c3)nc3ccsc3c2=O)cc1
- IC50 [18]: > 32 µM (inactive)
